The subject of one assay is L1210 (R7A). As to the kind of experiment: Concentration required to inhibit 50% growth of L1210 of R7A mutant mouse leukemia cell line was determined. The class given is functional, cell-based.
Assay [1] concerns L1210. The assay can be described thus: The inhibitory activity was determined on L1210 mouse leukemia cell in presence of thymidine. The class given is functional. Details: scale not given: the % may be the effect or the level left.
The test system of assay [2] is L1210. As to the kind of experiment: Concentration required to inhibit 50% growth of L1210 mouse leukemia cells was determined. The class given is functional, cell-based.
In another assay the test system is L1210 (1565). As to the kind of experiment: cells. To be noted: Mus musculus. The class given is functional, cell-based.
For a further assay, the target named is Thymidylate synthase (Mus musculus, UniProt P07607). As to the kind of experiment: Concentration required to inhibit 50% activity of Thymidylate synthase was determined.
Sequence of Thymidylate synthase (P07607 whole entry): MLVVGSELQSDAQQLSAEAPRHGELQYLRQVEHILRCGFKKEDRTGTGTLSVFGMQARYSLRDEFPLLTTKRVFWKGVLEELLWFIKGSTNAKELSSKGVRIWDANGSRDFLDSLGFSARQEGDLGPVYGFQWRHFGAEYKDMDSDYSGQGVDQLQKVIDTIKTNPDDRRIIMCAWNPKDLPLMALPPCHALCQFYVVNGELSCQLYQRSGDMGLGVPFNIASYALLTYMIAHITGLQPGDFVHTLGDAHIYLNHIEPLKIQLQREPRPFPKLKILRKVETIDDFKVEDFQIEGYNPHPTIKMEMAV

SMILES strings stand for the structures.

Description for L1210 (1565): Concentration required to inhibit 50% growth of L1210 /1565 mutant mouse leukemia cell line was determined

Take `C#CCN(Cc1ccc2nc[nH]c(=O)c2c1)c1ccc(C(=O)N[C@@H](CCC(=O)O)C(=O)O)cc1`: the values for the half-maximal inhibitory concentration (IC50) with L1210 (R7A), in the assay with L1210 [2] and in the assay with L1210 (1565) were 7500 nM, 360 nM and 4100 nM, respectively. The Control in the assay on L1210 [1] is on record as 100%.
On to `C#CCN(Cc1ccc2nc(N)[nH]c(=O)c2c1)c1ccc(C(=O)N[C@@H](CCC(=O)O)C(=O)O)c(F)c1`, for which the IC50 in the assay on L1210 (R7A) is 6200 nM; in the assay with L1210 [2], 1100 nM; against Thymidylate synthase, 9 nM; in the assay with L1210 (1565), 600 nM. Moreover, in the assay on L1210 [1], the Control stood at 84%.
On to `C#CCN(Cc1ccc2nc(CO)[nH]c(=O)c2c1)c1ccc(C(=O)N[C@@H](CCC(=O)O)C(=O)O)c(F)c1`, for which the Control in the assay with L1210 [1] was 82%. Further, the 50% inhibitory concentration (IC50) amounted to 1900 nM in the assay on L1210 [2] and 6000 nM in the assay with L1210 (1565).
For `C#CCN(Cc1ccc2nc(OC)[nH]c(=O)c2c1)c1ccc(C(=O)N[C@@H](CCC(=O)O)C(=O)O)c(F)c1`, the Control in the assay on L1210 [1] came out at 89%. Moreover, the IC50 was found to be 1000 nM with L1210 [2], 36 nM against Thymidylate synthase and 45000 nM in the assay with L1210 (1565).
With `C#CCN(Cc1ccc2nc(C)[nH]c(=O)c2c1)c1ccc(C(=O)N[C@@H](CCC(=O)O)C(=O)O)c(F)c1`, the IC50 in the assay with L1210 (R7A) worked out at 110 nM; in the assay on L1210 [2], 27 nM; at Thymidylate synthase it was 20 nM; in the assay with L1210 (1565) it was 2200 nM. Further, in the assay on L1210 [1], the Control is on record as 97%.
In the case of `C#CCN(Cc1ccc2nc(OC)[nH]c(=O)c2c1)c1ccc(C(=O)N[C@@H](CCC(=O)O)C(=O)O)cc1`, the IC50 with L1210 (R7A) was 14000 nM; in the assay on L1210 [2], 1900 nM; with L1210 (1565), 160000 nM. Moreover, in the assay with L1210 [1], the Control stood at 100%.
In the same order, the values of `C#CCN(Cc1ccc2[nH]c(N)nc(=O)c2c1)c1ccc(C(=O)N[C@@H](CCC(=O)O)C(=O)O)cc1` are 41000 nM, 3500 nM, 3600 nM and 96%.
Consider `C#CCN(Cc1ccc2nc[nH]c(=O)c2c1)c1ccc(C(=O)N[C@@H](CCC(=O)O)C(=O)O)c(F)c1`, for which the IC50 in the assay with L1210 (R7A) is 3800 nM; with L1210 [2], 290 nM; on Thymidylate synthase it was 58 nM; in the assay on L1210 (1565), 1200 nM. In addition, the Control in the assay with L1210 [1] is 84%.
Regarding `C#CCN(Cc1ccc2nc(C)[nH]c(=O)c2c1)c1ccc(C(=O)N[C@@H](CCC(=O)O)C(=O)O)cc1`, the results for the half-inhibitory concentration (IC50) in the assay with L1210 (R7A), with L1210 [2] and in the assay on L1210 (1565) were 390 nM, 85 nM and 8300 nM, respectively. Also, in the assay on L1210 [1], the Control is 100%.

The record behind these values is ChEMBL document CHEMBL1125013, “Quinazoline antifolate thymidylate synthase inhibitors: 2'-fluoro-N10-propargyl-5,8-dideazafolic acid and derivatives with modifications in the C2 position” (J Med Chem, 1990).
